We go through 23 molecules from patent publication US20110166121A1 (LG LIFE SCIENCES LTD., priority 2008, published 2011).

The experiment deals with T1, Human P2Y12 receptor (Homo sapiens, UniProt Q9H244).
T1 construct: expressed in transfected cells; host or cells: HEK cells
Description: Human P2Y12 receptor cell membrane binding assay with [3H] 2-Mes-ADP. As to conditions: 1 nM [3H] 2-Mes-ADP; for IC50: membranes of HEK cells expressing P2Y12 receptor, read-out: Binding activity (IC50); for inhibition at 30 µM: 30 μM compound. The method, then:
Human P2Y12 Receptor Cell Membrane Binding Assay with [^3H] 2-Mes-ADP
Whether test compounds bind to P2Y12 receptor is measured by [3H]-2MesADP binding in HEK cells expressing P2Y12 receptor. The efficacy according to the amount of test compound can be known through the above test, competitive binding test to P2Y12 receptor, in which the binding material (2-Mes-ADP) is labeled with radioactivity isotope and then the extent of inhibition against the binding of radioactively labeled material is measured.
Preparation of P2Y12 Membrane Protein Fraction
Harvested P2Y12 cells were resuspended with Hypotonic buffer (10 mM HEPES, 10 mM NaCl, 1 mM EDTA, 1 mM EGTA pH 7.4) containing protease inhibitor cocktail. Following the incubation on ice for 15 min, cells were homogenized on ice (Glass/Teflon homogenizer; 1,000 rpm, 10 strokes). The supernant was taken from centrifugation at 500×g for 15 min and then recentrifuged the supernant at 30,000 rpm for 30 min. The membrane pellet was adjusted to 1 mg/mL concentration and stored at −80° C.
P2Y12 Receptor Cell Membrane Binding Assay with [3H] 2-Mes-ADP
The volume of 100 μL of 200 μg membrane protein was aliquoted into 96 well plate. 50 μL volume of test compounds and [^3H] 2-Mes-ADP (final: 1 nM) were added into each well. The total reaction of 0.2 ml/well was incubated for 1 hour at R.T. The reaction was terminated by filtration through GF/B filter using a 96-well cell harvester. […] Radioactivity bound to P2Y12 receptor membrane was counted in a scintillation counter. Total binding was determined with CPM of test group having no compound and non-specific binding was determined with CPM of test group containing 10 μM 2-Mes-ADP. Binding inhibition percent was calculated as follows: [100−(specific binding in the presence of test material/specific binding in the absence of test material×100)].

T1 sequence (Q9H244 whole entry): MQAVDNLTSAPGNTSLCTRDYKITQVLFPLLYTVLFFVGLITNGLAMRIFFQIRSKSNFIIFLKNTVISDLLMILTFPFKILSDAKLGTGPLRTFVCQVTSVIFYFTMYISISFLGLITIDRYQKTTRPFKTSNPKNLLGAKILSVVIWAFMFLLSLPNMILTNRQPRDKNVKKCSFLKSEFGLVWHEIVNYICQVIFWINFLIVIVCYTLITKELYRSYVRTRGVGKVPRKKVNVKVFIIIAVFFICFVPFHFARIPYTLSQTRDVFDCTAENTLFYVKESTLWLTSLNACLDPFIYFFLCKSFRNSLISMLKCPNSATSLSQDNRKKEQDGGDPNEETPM

For `CCc1cc2c(N3CCn4c(nnc4C(F)(F)F)C3)nc(CN3CC[C@@H](O)C3)nc2s1` [Example 4-20, (R)-1-[6-Ethyl-4-(3-trifluoromethyl-5,6-dihydro-8H-[1,2,4]triazolo[4,3-a]pyrazin-7-yl)thieno[2,3-d]pyrimidin-2-ylmethyl]pyrrolidin-3-ol], the IC50 is 4.21 µM.
As to `CCc1nc2c(N3CCn4c(nnc4C(F)(F)F)C3)nc(N3CCNC(=O)C3)nc2s1` [Example 5-1, 4-[2-Ethyl-7-(3-trifluoromethyl-5,6-dihydro-8H-[1,2,4]triazolo[4,3-a]pyrazin-7-yl)-thiazolo[5,4-d]pyrimidin-5-yl]-piperazin-2-one], the IC50 was 0.68 µM.
With `CCc1nc2c(N3CCn4c(nnc4C(F)(F)F)C3)nc(NCCO)nc2s1` [Example 5-2, 2-[2-Ethyl-7-(3-trifluoromethyl-5,6-dihydro-8H-[1,2,4]triazolo[4,3-a]pyrazin-7-yl)-thiazolo[5,4-d]pyrimidin-5-ylamino]-ethanol], the concentration for half-maximal inhibition (IC50) stood at 2.32 µM.
For `CCc1nc2c(N3CCn4c(nnc4C(F)(F)F)C3)nc(N3CCN(C)CC3)nc2s1` [Example 5-3, 2-Ethyl-5-(4-methyl-piperazin-1-yl)-7-(3-trifluoromethyl-5,6-dihydro-8H-[1,2,4]triazolo[4,3-a]pyrazin-7-yl)-thiazolo[5,4-d]pyrimidine], the half-inhibitory concentration (IC50) was determined as 1.15 µM.
Same read-out and setting: in the case of `CCc1cc2c(N3CCn4c(nnc4C(F)(F)C(F)(F)F)C3)nc(N3CCNC(=O)C3)nc2s1` [Example 6-1, 4-[6-Ethyl-4-(3-pentafluoroethyl-5,6-dihydro-8H-[1,2,4]triazolo[4,3-a]pyrazin-7-yl)-thieno[2,3-d]pyrimidin-2-yl]-piperazin-2-one] it was 0.133 µM; in that of `CCc1cc2c(N3CCn4c(nnc4C(F)(F)C(F)(F)F)C3)nc(NCC(O)CO)nc2s1` (centres unmarked) [Example 6-2, 3-[6-Ethyl-4-(3-pentafluoroethyl-5,6-dihydro-8H-[1,2,4]triazolo[4,3-a]pyrazin-7-yl)-thieno[2,3-d]pyrimidin-2-ylamino]-propane-1,2-diol], 1.2 µM; in that of `CCc1cc2c(N3CCn4cnnc4C3)nc(N3CCNC(=O)C3)nc2s1` [Example 6-10, 4-[4-(5,6-Dihydro-8H-[1,2,4]triazolo[4,3-a]pyrazin-7-yl)-6-ethyl-thieno[2,3-d]pyrimidin-2-yl]-piperazin-2-one], 7 µM.
`CCc1cc2c(N3CCn4cnnc4C3)nc(OCC(O)CO)nc2s1` (centres unmarked) [Example 6-11, 3-[4-(5,6-Dihydro-8H-[1,2,4]triazolo[4,3-a]pyrazin-7-yl)-6-ethyl-thieno[2,3-d]pyrimidin-2-yloxy]-propane-1,2-diol]: the inhibition at 30 µM was found to be 39.3%.
In the case of `CCc1cc2c(N3CCn4c(nnc4-c4ccccc4)C3)nc(N3CCNC(=O)C3)nc2s1` [Example 6-19, 4-[6-Ethyl-4-(3-phenyl-5,6-dihydro-8H-[1,2,4]triazolo[4,3-a]pyrazin-7-yl)-thieno[2,3-d]pyrimidin-2-yl]-piperazin-2-one], the half-inhibitory concentration (IC50) amounted to 1.95 µM.
Take `CCc1cc2c(N3CCn4ccnc4C3)nc(N3CCNC(=O)C3)nc2s1` [Example 6-20, 4-[4-(5,6-Dihydro-8H-imidazo[1,2-a]pyrazin-7-yl)-6-ethyl-thieno[2,3-d]pyrimidin-2-yl]-piperazin-2-one]: the IC50 turned out to be 7.64 µM.
The same measure, in the same setting: for `CCc1cc2c(N3CCn4ccnc4C3)nc(OCC(O)CO)nc2s1` (centres unmarked) [Example 6-21, 3-[4-(5,6-Dihydro-8H-imidazo[1,2-a]pyrazin-7-yl)-6-ethyl-thieno[2,3-d]pyrimidin-2-yloxy]-propane-1,2-diol] the value was 14.5 µM.
On to `CCc1cc2c(N3CCn4cc(C(F)(F)F)nc4C3)nc(N3CCNC(=O)C3)nc2s1` [Example 6-22, 4-[6-Ethyl-4-(2-trifluoromethyl-5,6-dihydro-8H-imidazo[1,2-a]pyrazin-7-yl)-thieno[2,3-d]pyrimidin-2-yl]-piperazin-2-one], for which the half-inhibitory concentration (IC50) is 10 µM.
In the case of `CCc1cc2c(N3CCn4cc(C(F)(F)F)nc4C3)nc(OCC(O)CO)nc2s1` (centres unmarked) [Example 6-23, 3-[6-Ethyl-4-(2-trifluoromethyl-5,6-dihydro-8H-imidazo[1,2-a]pyrazin-7-yl)-thieno[2,3-d]pyrimidin-2-yloxy]-propane-1,2-diol], the IC50 amounted to 12 µM.
On the same count and under the same terms, for `CCc1cc2c(N3CCc4[nH]ncc4C3)nc(N3CCNC(=O)C3)nc2s1` [Example 6-24, 4-[6-Ethyl-4-(1,4,6,7-tetrahydro-pyrazolo[4,3-c]pyridin-5-yl)-thieno[2,3-d]pyrimidin-2-yl]-piperazin-2-one] the value was 30 µM.
Molecule `CCc1cc2c(N3CCc4[nH]ncc4C3)nc(OCC(O)CO)nc2s1` (centres unmarked) [Example 6-25, 3-[6-Ethyl-4-(1,4,6,7-tetrahydro-pyrazolo[4,3-c]pyridin-5-yl)-thieno[2,3-d]pyrimidin-2-yloxy]-propane-1,2-diol] returned an inhibition at 30 µM of 38.6%.
In the case of `CCc1cc2c(N3CCc4[nH]nc(C(F)(F)F)c4C3)nc(N3CCNC(=O)C3)nc2s1` [Example 6-26, 4-[6-Ethyl-4-(3-trifluoromethyl-1,4,6,7-tetrahydro-pyrazolo[4,3-c]pyridin-5-yl)-thieno[2,3-d]pyrimidin-2-yl]-piperazin-2-one], the IC50 was found to be 16.4 µM.
`CCc1cc2c(N3CCc4ccccc4C3)nc(N3CCNC(=O)C3)nc2s1` [Example 6-27, 4-[4-(3,4-Dihydro-1H-isoquinolin-2-yl)-6-ethyl-thieno[2,3-d]pyrimidin-2-yl]-piperazin-2-one]: the IC50 was 10 µM.
Still for that read-out and setting: in the case of `CCc1cc2c(N3CCc4cc(OC)c(OC)cc4C3)nc(N3CCNC(=O)C3)nc2s1` [Example 6-28, 4-[4-(6,7-Dimethoxy-3,4-dihydro-1H-isoquinolin-2-yl)-6-ethyl-thieno[2,3-d]pyrimidin-2-yl]-piperazin-2-one] it was 5.6 µM; in that of `CCc1cc2c(N3CCc4c([nH]c5ccccc45)C3)nc(N3CCNC(=O)C3)nc2s1` [Example 6-29, 4-[6-Ethyl-4-(1,3,4,9-tetrahydro-beta-carbolin-2-yl)-thieno[2,3-d]pyrimidin-2-yl]-piperazin-2-one], 29.8 µM.
For `CCc1cc2c(N3CCc4c(ncnc4C(F)(F)F)C3)nc(N3CCNC(=O)C3)nc2s1` [Example 6-30, 4-[6-Ethyl-4-(4-trifluoromethyl-5,8-dihydro-6H-pyrido[3,4-d]pyrimidin-7-yl)-thieno[2,3-d]pyrimidin-2-yl]-piperazin-2-one], the IC50 was found to be 1.04 µM.
On the same count and under the same terms, in the case of `CCc1cc2c(N3CCc4c(nc(C(F)(F)F)nc4C(F)(F)F)C3)nc(N3CCNC(=O)C3)nc2s1` [Example 6-31, 4-[4-(2,4-Bis-trifluoromethyl-5,8-dihydro-6H-pyrido[3,4-d]pyrimidin-7-yl)-6-ethyl-thieno[2,3-d]pyrimidin-2-yl]-piperazin-2-one] it was 4.66 µM.
As for `CCc1cc2c(N3CCc4c(nc(C(F)(F)F)nc4C(F)(F)F)C3)nc(OCC(O)CO)nc2s1` (centres unmarked) [Example 6-32, 3-[4-(2,4-Bis-trifluoromethyl-5,8-dihydro-6H-pyrido[3,4-d]pyrimidin-7-yl)-6-ethyl-thieno[2,3-d]pyrimidin-2-yloxy]-propane-1,2-diol], the half-inhibitory concentration (IC50) was 4.64 µM.
The same measure, in the same setting: in the case of `CCCc1cc2c(N3CCc4c(nc(C(F)(F)F)nc4C(F)(F)F)C3)nc(N3CCNC(=O)C3)nc2s1` [Example 6-33, 4-[4-(2,4-Bis-trifluoromethyl-5,8-dihydro-6H-pyrido[3,4-d]pyrimidin-7-yl)-6-propyl-thieno[2,3-d]pyrimidin-2-yl]-piperazin-2-one] it was 2.37 µM.

The IC50 is the midpoint of a concentration-inhibition curve. For orientation: inhibition means how much of the control response was suppressed. Read a low inhibition as little suppression.
